{
  "source": "patent US9884863B2",
  "about": "“STAT3 inhibitor” (Board of Regents, The University of Texas System, priority 2013, dated 2018)",
  "key": {"[1]": {"system": "MDA-MB-231 and MDA-MB-468 cells", "assay": "Colony formation assay", "assay_type": "cell-based, human", "details": "15 days, starting at 0.625 μM", "experimental": "Colony Formation Assay: MDA-MB-468 and MDA-MB-231 cells were seeded in 6-well plates with a density of 800-3000 cells/well, respectively. […] The culture media with the compounds were changed every 72 h. After two weeks, the wells were washed twice with PBS buffer and 2 mL of 0.01% crystal violet staining buffer was added and incubated for 10 min. The wells were then washed with PBS for 5 min for three times, and allowed to dry. Photographs were then taken and the density of the entire culture well area was digitally measured using the GelCount™ instrument (Oxford Optronix, UK). Experiments were performed in triplicate and the density data were analyzed with one-way ANOVA using GraphPad Prizm 6 software. Error bars represent standard deviation."}, "[2]": {"system": "STAT3 and pSTAT3 in MDA-MB-453 and BT474 cells", "assay": "Transient transfection of STAT3 expression vector and Western blot", "assay_type": "cell-based, human", "details": "10 μM, 12 h", "experimental": "Transient Transfection of STAT3 Expression Vector: Transient transfection was conducted using Fugene HD reagent (Invitrogen, N.Y., USA) per manufacturer's instructions. Briefly, MDA-MB-453 and BT474 cells were seeded in 100 mm^2 culture dishes and incubated overnight. Culture medium was changed to FBS free media 1 h prior to transfection, and 15 μg STAT3C over-expression vector (#24983, Addgene, Mass., USA), 45 μL Fugene HD together with 879 μL opti-MEM (Invitrogen, N.Y.) was added into each dish. Eight hours after transfection, the media was removed and changed to regular media containing 10% FBS. […] After 12 h treatment, total cell lysates were collected and proceeded to Western blot analysis."}, "MDA-MB-231 cells": {"system": "MDA-MB-231 cells", "assay": "Apoptosis assay (annexin V, flow cytometry)", "assay_type": "cell-based, human", "details": "MDA-MB-231", "experimental": "Cell Cycle Assay and Apoptosis Assay: Cell cycle and apoptosis kits (#MCH100106 and #MCH100105, Millipore, Mass.) were used. […] 24 and 48 h after drug treatment, both adherent and floating cells were collected, washed once with PBS and fixed in cold ethanol for at least 4 h before cell cycle analysis. The fixed cells were then washed twice with PBS and resuspended in 200 μL cell cycle detection reagent, incubated for 30 minutes in dark at room temperature. Cell cycle distribution was measured by the Muse Cell Analyzer with Muse™ Cell Cycle. Similarly, MDA-MB-231 cells with the same treatments were prepared for apoptosis assay. After washing with PBS, resuspended cells were incubated with 100 μL PBS containing 1% BSA and 100 μL Annexin V and dead cell detection reagent in dark for 20 minutes at room temperature. Apoptosis was measured immediately using the Muse Cell Analyzer with the Muse™ Apoptosis Program."}, "[3]": {"system": "MDA-MB-231 xenograft tumors", "assay": "MDA-MB-231 xenograft tumor growth in nude mice", "assay_type": "in vivo", "details": "oral gavage daily for 14 days"}, "[4]": {"system": "pSTAT3 nuclear translocation in MDA-MB-231 cells", "assay": "IL-6 induction of STAT3 phosphorylation and nuclear translocation", "assay_type": "cell-based, human", "details": "treatment for 6 h, IL-6 1 h", "experimental": "IL-6 Induction of STAT3 Phosphorylation and Nuclear Translocation: A total of 5×10^4 MDA-MB-231 cells were seeded into each well of the chamber slides (#154526, Thermo, N.Y.) and cultured overnight. Cells were starved up to 24 h prior to the designated drug treatment. […] After stimulation with IL-6 (50 ng/mL) for 1 h, the culture media were aspirated and followed by DPBS (Gibco, Auckland, NZ) wash twice. Then cells were fixed with 4% paraformaldehyde for 10 min, followed by permeabilization using 100% methanol, blocking buffer for 1 h at room temperature, and incubation with primary antibodies at 4° C. overnight. After incubation with secondary antibody for 1 h, slides were stained with DAPI (Invitrogen, CA) for 5 min, and then anti-fade mounting media added to each chamber. Cells were then analyzed under immunofluorescence microscope with laser-scanning confocal imaging system (Nikon TS100F)."}, "[5]": {"system": "STAT3 and pSTAT3 in MDA-MB-231 xenograft tumors", "assay": "IHC and Western blot of xenograft tumors", "assay_type": "in vivo, mice", "excerpt": "Immunohistochemistry (IHC): Paraffin blocks of the collected tissue were sectioned into 4 μm thickness and stained with H&E as a reference. All slides were subjected to phospho-STAT3 (Y705) IHC with ABC staining method. Rabbit or mouse IgG ABC kit was purchased from Vector Laboratories (Burlingame, Calif., USA) and ABC staining reagents were purchased from Sigma Aldrich (Louis, Mo., USA). PBS was used instead of primary antibody as a negative control."}, "[6]": {"system": "STAT family, STAT3-dependent genes and JAKs in MDA-MB-468 cells", "assay": "Western blot analysis, MDA-MB-468 cells", "assay_type": "cell-based, human"}, "[7]": {"system": "STAT family, STAT3-dependent genes and JAKs in MDA-MB-231 cells", "assay": "Western blot analysis, MDA-MB-231 cells", "assay_type": "cell-based, human", "experimental": "Blocking STAT3 signaling in many different tumor cells leads to induce growth arrest and apoptosis (Turkson, J. et al., 2000; Bromberg, J., 2002; Zhang, X. et al., 2012).\nWestern Blot Analysis. Protein levels were determined by Western blot using the previously described methods (Shen, Q. et al., 2008). Total cell lysates were prepared from MDA-MB-231 cells. Protein concentrations were measured using the BCA Protein Assay Reagent (Pierce, Rockford, Ill., USA). Equal amounts of total cellular protein extract (40 μg) were resuspended in denaturing sample loading buffer (0.5 M Tris-HCl, pH 6.8, 10% SDS, 0.1% bromophenol blue, and 20% glycerol), separated by electrophoresis on a 10% polyacrylamide SDS-PAGE gel and then electrophoretically transferred to a nitrocellulose membrane (Thermo Scientific, Ill., USA) at 100 Volts for 1 h at 4° C. The membrane was then incubated in a blocking solution containing 5% non-fat milk and 1% Tween 20 in TBS for 1 h. The membrane was then incubated with antibodies specific for: phospho-STAT3-pY705 (1:3000, Epitomics, #2236-1), STAT3 (1:2000, Cell Signaling, #4904), Caspase-3-cleaved (1:2000, Epitomics, #1476-1), Cyclin D1 (1:10000, Epitomics, #2261-1) and β-actin (1:10000, Sigma, clone AC-15). An anti-rabbit or anti-mouse secondary antibody (Amersham, Piscataway, N.J.) was used at 1:4000 dilution. The Western blotted bands were visualized using ECL procedure according to the manufacturer's instructions (Amersham)."}, "STAT3": {"target": "STAT3 (Homo sapiens, UniProt P40763)", "sequence (P40763 whole entry, species assumed)": "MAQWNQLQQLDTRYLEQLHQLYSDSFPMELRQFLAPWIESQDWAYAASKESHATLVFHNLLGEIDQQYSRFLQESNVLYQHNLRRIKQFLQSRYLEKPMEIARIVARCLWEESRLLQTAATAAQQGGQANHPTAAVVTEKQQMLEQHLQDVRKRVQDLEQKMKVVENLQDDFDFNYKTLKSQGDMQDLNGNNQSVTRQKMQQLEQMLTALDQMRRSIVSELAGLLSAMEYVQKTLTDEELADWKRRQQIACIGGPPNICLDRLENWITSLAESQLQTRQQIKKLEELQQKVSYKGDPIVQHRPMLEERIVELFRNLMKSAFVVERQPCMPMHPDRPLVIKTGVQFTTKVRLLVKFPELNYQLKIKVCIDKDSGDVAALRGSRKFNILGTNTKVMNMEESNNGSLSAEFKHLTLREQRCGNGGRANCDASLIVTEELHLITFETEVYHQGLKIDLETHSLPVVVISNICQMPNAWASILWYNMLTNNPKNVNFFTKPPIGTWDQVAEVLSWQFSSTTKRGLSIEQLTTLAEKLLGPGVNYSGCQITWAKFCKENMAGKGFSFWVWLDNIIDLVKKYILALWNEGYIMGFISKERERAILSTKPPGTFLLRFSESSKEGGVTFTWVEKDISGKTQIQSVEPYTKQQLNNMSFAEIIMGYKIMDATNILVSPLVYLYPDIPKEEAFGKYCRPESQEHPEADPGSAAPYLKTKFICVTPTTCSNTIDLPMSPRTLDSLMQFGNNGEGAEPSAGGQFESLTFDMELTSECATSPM", "details": "Schust et al. 2006; read-out: IC50, binding to STAT3; cited from earlier work"}},
  "data": [
    {"compound": "NCCOc1ccc(Cl)cc1C(=O)Nc1ccc([N+](=O)[O-])cc1Cl", "note": "[HJC0152]", "values": [
      {"measurement": "colony formation", "setting": "[1]", "result": "significant suppression of colony formation"},
      {"measurement": "STAT3 and pSTAT3 levels after forced expression of STAT3", "setting": "[2]", "result": "significantly decreased"},
      {"measurement": "apoptosis at 1 μM", "setting": "MDA-MB-231 cells", "result": 8, "unit": "%"},
      {"measurement": "apoptosis at 10 μM", "setting": "MDA-MB-231 cells", "result": 23, "unit": "%"},
      {"measurement": "reduction in tumor growth, 25 mg/kg", "setting": "[3]", "result": "approximately 80%"},
      {"measurement": "IL-6 induced nuclear translocation of pSTAT3", "setting": "[4]", "result": "blocked"},
      {"measurement": "pSTAT3 (Y705) level in xenograft tumors, IHC", "setting": "[5]; 25 mg/kg oral", "result": "significant effect on reducing pSTAT3 level"},
      {"measurement": "STAT3 and pSTAT3 (Y705 and S727) in tumor lysates, Western blot", "setting": "[5]; oral gavage 14 days", "result": "decreased"},
      {"measurement": "JAK3", "setting": "[6]; MDA-MB-468", "result": "minimal alterations"},
      {"measurement": "STAT1", "setting": "[6]; MDA-MB-468", "result": "minimal changes"},
      {"measurement": "cleaved PARP1", "setting": "[6]; MDA-MB-468", "result": "induced from 6 h"},
      {"measurement": "JAK2 and pJAK2", "setting": "[6]; MDA-MB-468, 12 h, recovered at 24 h", "result": "transient down-regulation"},
      {"measurement": "JAK1 protein", "setting": "[6]; MDA-MB-468, 12 h and 24 h", "result": "decreased level"},
      {"measurement": "Bcl-2 and cyclin D1", "setting": "[6]; MDA-MB-468, from 6 h", "result": "decreased level"},
      {"measurement": "pSTAT1 at Y701 and S727", "setting": "[6]; MDA-MB-468, from 6 h, 10 μM", "result": "down-regulation"},
      {"measurement": "STAT5 and pSTAT5 (Y694)", "setting": "[6]; MDA-MB-468, from 12 h, 5 μM", "result": "decreased level"},
      {"measurement": "STAT3 and pSTAT3", "setting": "[6]; MDA-MB-468, starting at 3 h", "result": "down-regulation"},
      {"measurement": "JAK1 or pJAK1 (Y1022)", "setting": "[7]; MDA-MB-231", "result": "no changes"},
      {"measurement": "Mcl-1", "setting": "[7]; MDA-MB-231", "result": "decrease starting from 6 h"},
      {"measurement": "STAT1 and active STAT1 at Y701 or S727", "setting": "[7]; MDA-MB-231", "result": "no significant changes"},
      {"measurement": "STAT2, STAT4 and STAT6", "setting": "[7]; MDA-MB-231", "result": "minimal changes"},
      {"measurement": "cleaved caspase 3", "setting": "[7]; MDA-MB-231", "result": "induced at 12 h"},
      {"measurement": "pSTAT3 at S727 residue", "setting": "[7]; MDA-MB-231", "result": "continuous inhibition to 24 h"},
      {"measurement": "STAT5", "setting": "[7]; MDA-MB-231, 5 and 10 μM", "result": "transient decrease at 6 h"},
      {"measurement": "pSTAT5", "setting": "[7]; MDA-MB-231, 12 and 24 h, 5 and 10 μM", "result": "moderate decrease"},
      {"measurement": "pSTAT3 at Y705 residue", "setting": "[7]; MDA-MB-231, 6 h, recovered at 24 h", "result": "significantly decreased"},
      {"measurement": "Bcl-xl protein and cyclin D1", "setting": "[7]; MDA-MB-231, 24 h", "result": "not altered"},
      {"measurement": "JAK2 and pJAK2 (Y1007 & Y1008)", "setting": "[7]; MDA-MB-231, from 6 h, 5 μM and 10 μM", "result": "apparent down-regulation"}
    ]},
    {"compound": "O=[N+]([O-])c1ccc2c(c1)S(=O)(=O)C=C2", "note": "[Stattic]", "values": [
      {"measurement": "IC50", "setting": "STAT3", "result": 5.1, "unit": "µM"}
    ]}
  ]
}
